Results from US8586611B2 (priority 2005, dated 2013).
Where two headings read alike, the source gives them in different places.

Legend:
Type in all cases: in vivo
Phytophthora infestans [1] = experiment: whole plant or invertebrate; conditions: for Test C disease rating (100 = 100% disease control, 0 = no disease control): tomato late blight
[2] = system: Erysiphe graminis f. sp. tritici; experiment: Test E: wheat powdery mildew, spray the day before inoculation (disease rating, 100 = 100% disease control)
How it was run: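 Wheat seedlings sprayed to run-off with compound suspended in acetone/water 50/50 with 250 ppm Trem 014 (200 ppm equivalent to 500 g/ha); inoculated next day with Erysiphe graminis f. sp. tritici spore dust. Kept 7 days at 20° C, then rated 0–100% disease control versus controls.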

Plasmopara viticola = experiment: Test B: grape downy mildew, spray 24 h after inoculation (disease rating, 100 = 100% disease control)
How it was run: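 Grape seedlings were inoculated with Plasmopara viticola and held 24 h saturated at 20 °C, then sprayed to run-off with compound suspension (acetone/water with 250 ppm Trem 014; 200 ppm ≈ 500 g/ha). After 5 days at 20 °C and 24 h saturation, disease was rated from 0 to 100% control versus untreated.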

Phytophthora infestans [3] = experiment: whole plant or invertebrate; conditions: for Test D disease rating (100 = 100% disease control, 0 = no disease control): tomato late blight
[4] = spray the day before inoculation, compounds without asterisk (not 40 or 10 ppm)
[5] = spray 24 h after inoculation, compounds without asterisk (not 40 or 10 ppm)
[6] = spray 17 h after inoculation, compounds without asterisk (not 40 or 10 ppm)
[7] = sprayed the day before inoculation, unmarked compounds (no asterisk, not 40 or 10 ppm)
[8] = sprayed the day before inoculation, 7 days at 20° C., unmarked compounds (no asterisk, not 40 or 10 ppm)
[9] = sprayed 24 h after inoculation, unmarked compounds (no asterisk, not 40 or 10 ppm)
[10] = sprayed 17 h after inoculation, unmarked compounds (no asterisk, not 40 or 10 ppm)
[11] = spray the day before inoculation, tested at 40 ppm
[12] = spray the day before inoculation, tested at 10 ppm

SMILES	Test C disease rating (100 = 100% disease control, 0 = no disease control) (Phytophthora infestans [1]; [4]) [%]	Test E disease rating (100 = 100% disease control, 0 = no disease control) [2, 4] [%]	Test B disease rating (100 = 100% disease control, 0 = no disease control) (Plasmopara viticola; [5]) [%]	Test D disease rating (100 = 100% disease control, 0 = no disease control) (Phytophthora infestans [3]; [6]) [%]	further results
Cc1cn(CC(=O)N2CCC(c3nc(C(=O)N(C)[C@H](C)c4ccccc4)cs3)CC2)c(C)n1 [compound 121]	47	0	0	0	
Cc1cc(C(F)(F)F)nn1CC(=O)N1CCC(c2nc(C(=O)N(C)C3c4ccccc4C=CC3C)cs2)CC1 (stereo not drawn) [compound 230]	100	0	87	94	
Cc1cc(C(F)(F)F)nn1CC(=O)N1CCC(c2nc(C(=O)N(C)[C@H](C(=O)O)c3ccccc3)cs2)CC1 [compound 245]	47	0	0	0	
Cc1cc(C(F)(F)F)nn1CC(=O)N1CCC(c2nc(C(=O)NCCc3ccccc3)cs2)CC1 [compound 314]					Test C disease rating (100 = 100% disease control, 0 = no disease control) (Phytophthora infestans [1]; [7]): 100; Test E disease rating (100 = 100% disease control, 0 = no disease control) [2, 8]: 0; Test B disease rating (100 = 100% disease control, 0 = no disease control) (Plasmopara viticola; [9]): 98; Test D disease rating (100 = 100% disease control, 0 = no disease control) (Phytophthora infestans [3]; [10]): 99
Cc1ccc(C)c(CC(=O)N2CCC(c3nc(C(=O)N(C)C4CCc5ccccc54)cs3)CC2)c1 (stereo not drawn) [compound 100]	100	0	94	99	
Cc1ccc(C)c(CC(=O)N2CCC(c3nc(C(=O)N(C(C)C)[C@H](C)c4ccccc4)cs3)CC2)c1 [compound 285]					Test C disease rating (100 = 100% disease control, 0 = no disease control) (Phytophthora infestans [1]; [7]): 25; Test E disease rating (100 = 100% disease control, 0 = no disease control) [2, 8]: 0; Test B disease rating (100 = 100% disease control, 0 = no disease control) (Plasmopara viticola; [9]): 10; Test D disease rating (100 = 100% disease control, 0 = no disease control) (Phytophthora infestans [3]; [10]): 0
Cc1ccc([C@@H](C)NC(=O)c2csc(C3CCN(C(=O)Cc4cccc(Br)c4)CC3)n2)cc1 [compound 274]					Test C disease rating (100 = 100% disease control, 0 = no disease control) (Phytophthora infestans [1]; [7]): 37; Test E disease rating (100 = 100% disease control, 0 = no disease control) [2, 8]: 0; Test B disease rating (100 = 100% disease control, 0 = no disease control) (Plasmopara viticola; [9]): 29; Test D disease rating (100 = 100% disease control, 0 = no disease control) (Phytophthora infestans [3]; [10]): 0
Cc1ccc(C)c(CC(=O)N2CCC(c3nc(C(=O)N(C)C(CC(C)C)c4ccccc4)cs3)CC2)c1 (stereo not drawn) [compound 97]	86	0	53	0	
C[C@H](c1ccccc1)N(C)C(=O)c1csc(C2CCN(C(=O)Cc3cccs3)CC2)n1 [compound 88]	33	0	43	0	
Cc1ccc(C)c(CC(=O)N2CCC(c3nc(C(=O)N(C)[C@H](C)C4CCCCC4)cs3)CC2)c1 [compound 166]	68	0	34	16	
CC[C@H](c1ccccc1)N(C)C(=O)c1csc(C2CCN(C(=O)Cc3cc(C(F)(F)F)ccc3Cl)CC2)n1 [compound 114]	100	0	99	99	
Cc1cc(C(F)(F)F)nn1CC(=O)N1CCC(n2cc(C(=O)N(C)[C@@H]3CCCc4ccccc43)cn2)CC1 [Compound 233, N-methyl-1-[1-[[5-methyl-3-(trifluoromethyl)-1H-pyrazol-1-yl]acetyl]-4-piperidinyl]-N-[(1R)-1,2,3,4-tetrahydro-1-naphthalenyl]-1H-pyrazole-4-carboxamide]					pest or weed control at 40 ppm (Phytophthora infestans [1]; Phytophthora infestans, in Solanum lycopersicum, 144 h, read-out: Test C disease rating (100 = 100% disease control, 0 = no disease control)): 100%; pest or weed control at 40 ppm ([2]; Blumeria graminis, topical, 168 h, spray the day before inoculation, tested at 40 ppm, read-out: Test E disease rating (100 = 100% disease control, 0 = no disease control)): 0%; pest or weed control at 40 ppm (Plasmopara viticola; Plasmopara viticola, 144 h, spray 24 h after inoculation, tested at 40 ppm, read-out: Test B disease rating (100 = 100% disease control, 0 = no disease control)): 99%; pest or weed control at 40 ppm (Phytophthora infestans [3]; Phytophthora infestans, in Solanum lycopersicum, topical, 96 h, read-out: Test D disease rating (100 = 100% disease control, 0 = no disease control)): 99%
Cc1ccc(C)c(CC(=O)N2CCC(c3nc(C(=O)N(C)C(c4ccccc4)C(C)C)cs3)CC2)c1 (stereo not drawn) [compound 96]	100	0	98	49	
Cc1cc(C)n(CC(=O)N2CCC(c3nc(C(=O)N(C)[C@H](C)c4ccccc4)cs3)CC2)c1 [compound 101]	70	0	0	8	
Cc1cc(C(C)C)nn1CC(=O)N1CCC(c2nc(C(=O)N(C)[C@H](C)c3ccccc3)cs2)CC1 [compound 127]	92	0	0	0	
Cc1cc(C(F)(F)F)nn1CC(=O)N1CCC(c2nc(C(=O)N(C)C3CCCc4cc(Cl)ccc43)cs2)CC1 (stereo not drawn) [compound 201]					Test C disease rating (100 = 100% disease control, 0 = no disease control) (Phytophthora infestans [1]; [11]): 100%; Test E disease rating (100 = 100% disease control, 0 = no disease control) [2, 11]: 0%; Test B disease rating (100 = 100% disease control, 0 = no disease control) (Plasmopara viticola; spray 24 h after inoculation, tested at 40 ppm): 98%; Test D disease rating (100 = 100% disease control, 0 = no disease control) (Phytophthora infestans [3]; spray 17 h after inoculation, tested at 40 ppm): 99%
Cc1ccc(C)c(CC(=O)N2CCC(c3nc(C(=O)N(C)C(C)c4cc(C)oc4C)cs3)CC2)c1 (stereo not drawn) [compound 113]	97	0	0	31	
Cc1ccn(CC(=O)N2CCC(c3nc(C(=O)N(C)[C@H](C)c4ccccc4)cs3)CC2)n1 [compound 72]	91	0	1	66	
Cc1cc(C(F)(F)F)nn1CC(=O)N1CCC(c2nc(C(=O)N(C)C3CCCc4occc43)cs2)CC1 (stereo not drawn) [compound 183]					Test C disease rating (100 = 100% disease control, 0 = no disease control) (Phytophthora infestans [1]; [12]): 40%; Test E disease rating (100 = 100% disease control, 0 = no disease control) [2, 12]: 0%; Test B disease rating (100 = 100% disease control, 0 = no disease control) (Plasmopara viticola; spray 24 h after inoculation, tested at 10 ppm): 0%; Test D disease rating (100 = 100% disease control, 0 = no disease control) (Phytophthora infestans [3]; spray 17 h after inoculation, tested at 10 ppm): 16%
Cc1cccc(CC(=O)N2CCC(c3nc(C(=O)N(C)Cc4ccncc4)cs3)CC2)c1 [compound 170]	29	0	7	0	
CC(=O)OC1CCc2ccccc2C1N(C)C(=O)c1csc(C2CCN(C(=O)Cn3nc(C(F)(F)F)cc3C)CC2)n1 (stereo not drawn) [compound 195]	99	0	47	88	
